The values that follow come from ChEMBL document CHEMBL4007407, “Carbonic anhydrases from Trypanosoma and Leishmania as anti-protozoan drug targets” (Bioorg Med Chem, 2017).

Assay [1] in a line: Inhibition of Trypanosoma cruzi SUMO-tagged glucose-6-phosphate dehydrogenase expressed in Escherichia coli BL21(DE3) using glucose-6-phosphate as substrate by diaphorase enzyme coupled fluorescence assay.
The nature of assay [2]: Inhibition of Leishmania major trypanothione reductase.
A short description of assay [3]: Inhibition of Trypanosoma cruzi hexokinase.
The nature of assay [4]: Inhibition of Leishmania amazonensis squalene synthase.
The nature of assay [5]: Mixed-type inhibition of Trypanosoma cruzi epimastigotes hexokinase using D-glucose as substrate in presence of ATP by Lineweaver-Burk Plot analysis.
Assay [6] in a line: Inhibition of Trypanosoma cruzi glucose-6-phosphate dehydrogenase.
A further assay concerns Trypanosoma cruzi. In words: Antitrypanosomal activity against Trypanosoma cruzi Tulahuen amastigotes expressing beta-galactosidase gene infected in mouse NIH/3T3 cells after 4 days. The class given is functional, cell-based. The conditions noted are these: NIH3T3, 96 h.
Assay [7] can be described thus: Inhibition of Trypanosoma cruzi strain CL Brener N-terminal His6-tagged glucokinase expressed in Escherichia coli using D-glucose as substrate in presence of ATP by colorimetric assay.
The nature of assay [8]: Inhibition of Trypanosoma cruzi strain CL Brener N-terminal His6-tagged glucokinase expressed in Escherichia coli using D-glucose as substrate in presence of ATP by Lineweaver-Burk Plot analysis.
The subject of assay [9] is Leishmania. In words: Antileishmanial activity against Leishmania in visceral leishmaniasis patient assessed as cure incidents at 10 to 15 mg/kg, iv administered as single dose as lipid formulations relative to control. It counts as functional.
Assay [10] can be described thus: Inhibition of Trypanosoma cruzi N-terminal His-tagged full-length glucose-6-phosphate dehydrogenase expressed in Escherichia coli BL21(DE3) using glucose-6-phosphate as substrate in presence of NADP+ by spectrophotometric method.
The subject of assay [11] is Leishmania. The experiment in a line: Antileishmanial activity against Leishmania in mucocutaneous leishmaniasis patient assessed as cure incidents at 4 mg/kg relative to control. The class given is functional.

SMILES strings stand for the structures.

Usually IC50 stands for the concentration that inhibits the measured activity by half. Compound `C[C@]12CC[C@H](O)CC1=CC[C@@H]1[C@@H]2CC[C@]2(C)C(=O)[C@H](Br)C[C@@H]12` gave a half-inhibitory concentration (IC50) in assay [1] of 0.216 µM. In the case of `O=C(CCl)N1c2ccccc2Sc2ccccc21`, in assay [2], the concentration for half-maximal inhibition (IC50) is 9.3 µM. Broadly, the Ki is the equilibrium dissociation constant of an inhibitor or competing ligand from its target. Consider `CCn1c2ccccc2c2cc(NC(P(=O)(O)O)P(=O)(O)O)ccc21`, for which, in [3], the IC50 worked out at 6.4 µM and the inhibition constant (Ki) was determined as 2.8 µM. In [4], `COCCCOc1ccc(C#C[C@@]2(O)CN3CCC2CC3)c(Cc2ccccc2)n1` came in with an IC50 of 0.9 µM and a Ki of 0.0012 µM. As for `CO[C@H]1CN(c2ccc(C#C[C@@]3(O)CN4CCC3CC4)c(Cc3ccccc3)n2)C[C@H]1O`, in assay [4], the half-inhibitory concentration (IC50) amounted to 6.7 µM and the affinity corresponds to a Ki of 0.0052 µM. For `O=P(O)(O)C(Nc1cccc(Br)c1)P(=O)(O)O`, the Ki in [5] was 1.2 µM. For the compound `O=C(CCl)N1c2ccccc2Oc2ccc(Cl)cc21`, in [2], half-maximal inhibition (IC50) required 7.6 µM.

Compound `O=C(CCl)N1c2ccccc2COc2ccc(Cl)cc21` displayed a half-maximal inhibitory concentration (IC50) in [2] of 7.2 µM.

Regarding `CCCCCCCn1cnc2sc(C(N)=O)c(C)c2c1=O`, in assay [6], the IC50 came out at 4.9 µM. On to `O=C(N[C@@H]1[C@@H](O)[C@H](O)[C@@H](CO)O[C@@H]1O)OCc1ccccc1`, for which the half-inhibitory concentration (IC50) was 16.1 µM in the assay with Trypanosoma cruzi and 48.7 µM in assay [7]. Further, in [8], the Ki was determined as 0.71 µM.

For the compound `Cc1ccc(Nc2ncc3c(n2)CCCC3=O)cc1`, the concentration for half-maximal inhibition (IC50) in assay [6] turned out to be 0.48 µM. `O=C(N[C@@H]1[C@@H](O)[C@H](O)[C@@H](CO)O[C@@H]1O)c1ccccc1`: the IC50 with Trypanosoma cruzi is 48.7 µM; in assay [7], 16.1 µM. The Ki in assay [8] turned out to be 32 µM. As to `O=P(O)(O)C(O)(Cc1ccncc1)P(=O)(O)O`, the Ki in assay [5] is 4.3 µM. As to `C[C@]12CC[C@H](O)C[C@@H]1CC[C@@H]1[C@@H]2CC[C@]2(C)C(=O)[C@H](Br)C[C@@H]12` [16.ALPHA.-BROMOEPIANDROSTERONE], the IC50 in assay [1] amounted to 0.086 µM. Consider `C[C@@H]1[C@H](O)[C@@H](C)/C=C/C=C/C=C/C=C/C=C/C=C/C=C/[C@H](O[C@@H]2O[C@H](C)[C@@H](O)[C@H](N)[C@@H]2O)C[C@@H]2O[C@](O)(C[C@@H](O)C[C@@H](O)[C@H](O)CC[C@@H](O)C[C@@H](O)CC(=O)O[C@H]1C)C[C@H](O)[C@H]2C(=O)O` [AMPHOTERICIN B], for which, in the assay on Leishmania [9], the Activity came to 93.3%.

For the compound `C[C@]12CC[C@H](O)C[C@@H]1CC[C@@H]1[C@@H]2CC[C@]2(C)C(=O)CC[C@@H]12` [EPIANDROSTERONE], in [10], the 50% inhibitory concentration (IC50) is 3 µM and the Ki is 3.2 µM. Regarding `N=C(N)c1ccc(OCCCCCOc2ccc(C(=N)N)cc2)cc1` [PENTAMIDINE], the Activity in the assay on Leishmania [11] was 90 - 95%.
